For data set [1], the target named is T1, SsDesB (without N-terminal hexahistidine tag) (Streptomyces sviceus, UniProt B5HNG5).
T1 construct: gene SSEG_08523; T2-V425, N-terminal His6 cut off with TEV protease (ENLYFQ/T); codon-optimized gene, E. coli Rosetta2(DE3); homotetramer
Briefly: Csaky iodine oxidation product formation assay. The note with it: substrate inhibition constant (Haldane), 50 μM FAD, pH 8.0, 25°C. The format is biochemical. From the text: (§1) Csaky iodine oxidation product formation assay on SsDesB (without N-terminal hexahistidine tag)

Data set [2] deals with NC(=O)C1=CN([C@@H]2O[C@H](COP(=O)(O)OP(=O)(O)OC[C@H]3O[C@@H](n4cnc5c(N)ncnc54)[C@H](O)[C@@H]3O)[C@@H](O)[C@H]2O)C=CC1. Briefly: Csaky iodine oxidation product formation assay. The note with it: 10 mM cadaverine, 50 μM FAD, pH 8.0, 25°C, Haldane fit. It counts as biochemical, Streptomyces sviceus.
Text: as §1

Data set [3] has as its target T1, SsDesB (without N-terminal hexahistidine tag). Briefly: X-ray crystal structure, […] Å. The note with it: holoenzyme; FAD-binding site; also in 6XBB.
Data set [4] has as its target T2, SsDesB with N-terminal hexahistidine tag (Streptomyces sviceus, UniProt B5HNG5).
T2 construct: gene SSEG_08523
Kind of data set: NADH oxidation at […] nm. It counts as biochemical. The note with it: substrate inhibition constant (Haldane); 0.7 mM NADH, 50 μM FAD, 25°C.

The target in data set [5] is T1, SsDesB (without N-terminal hexahistidine tag). Briefly: X-ray crystal structure, […] Å. The note with it: ternary complex with FAD; NADPH-binding site.
The test system of data set [6] is NC(=O)C1=CN([C@@H]2O[C@H](COP(=O)(O)OP(=O)(O)OC[C@H]3O[C@@H](n4cnc5c(N)ncnc54)[C@H](O)[C@@H]3O)[C@@H](O)[C@H]2O)C=CC1. Briefly: purified protein. The format is biochemical, Streptomyces sviceus. The note with it: 10 mM cadaverine, 50 μM FAD, 25°C, Haldane fit.

This is an account of results in PMC8009421, “Characterization of a broadly specific cadaverine N-hydroxylase involved in desferrioxamine B biosynthesis in Streptomyces sviceus” (PLoS ONE, 2021).

In the case of `NC(=O)C1=CN([C@@H]2O[C@H](COP(=O)(O)OP(=O)(O)OC[C@H]3O[C@@H](n4cnc5c(N)ncnc54)[C@H](OP(=O)(O)O)[C@@H]3O)[C@@H](O)[C@H]2O)C=CC1` [NADPH], the “KI” value in data set [1] (10 mM cadaverine) stood at 1.1 ± 0.6 mM.
Regarding “SsDesB (without N-terminal hexahistidine tag) (Streptomyces sviceus ATCC 29083)”, in data set [2], the Michaelis constant (Km) is 130 ± 49 µM, the kcat turned out to be 0.094 ± 0.018 s⁻¹ and the specificity constant (kcat/Km) came to 710 ± 260 M⁻¹ s⁻¹.
For `Cc1cc2nc3c(=O)[nH]c(=O)nc-3n(C[C@H](O)[C@H](O)[C@H](O)COP(=O)(O)OP(=O)(O)OC[C@H]3O[C@@H](n4cnc5c(N)ncnc54)[C@H](O)[C@@H]3O)c2cc1C` [FAD], the “X-ray crystal structure, 2.86 Å” value in data set [3] is given as “FAD molecule is bound in an elongated conformation with the fully planar isoalloxazine ring”.
Regarding `NCCCCCN` [cadaverine], the results for the “KI” value in data set [1] (0.7 mM NADPH (Fig 3 legend says NADH)) and in data set [4] were 27 ± 22 mM and 2.2 ± 1.8 mM, respectively.
Consider `NC(=O)c1ccc[n+]([C@@H]2O[C@H](COP(=O)(O)OP(=O)(O)OC[C@H]3O[C@@H](n4cnc5c(N)ncnc54)[C@H](OP(=O)(O)O)[C@@H]3O)[C@@H](O)[C@H]2O)c1` [NADP^+], for which the “X-ray crystal structure, 2.37 Å” value in data set [5] was “the NADP^+ cofactor is held in the active site pocket in an elongated manner”.
`NC(=O)C1=CN([C@@H]2O[C@H](COP(=O)(O)OP(=O)(O)OC[C@H]3O[C@@H](n4cnc5c(N)ncnc54)[C@H](O)[C@@H]3O)[C@@H](O)[C@H]2O)C=CC1` [NADH]: the “KI” value in data set [1] (10 mM cadaverine) is reported as 1.0 ± 0.4 mM.
For the compound “SsDesB with N-terminal hexahistidine tag (Streptomyces sviceus ATCC 29083)”, in data set [6], the Km was 120 ± 36 µM, the kcat is 0.38 ± 0.09 s⁻¹ and the specificity constant (kcat/Km) came out at 3300 ± 1300 M⁻¹ s⁻¹.
